Earlier results as cited in article PMC7074166, “Screening for Small Molecule Modulators of Trypanosoma brucei Hsp70 Chaperone Activity Based upon Alcyonarian Coral-Derived Natural Products” (Marine Drugs, 2020).

How the values were obtained:
PfHsp70-1 = tested on: PfHsp70-1; set-up: method as in PMID 21426241; settings: cited from earlier work
c-Met kinase = tested on: c-Met kinase; set-up: method as in PMID 23081922; settings: 10 μM; cited from earlier work

Row | SMILES | activity against PfHsp70-1 (PfHsp70-1) | reduction of c-Met kinase activity (c-Met kinase) [fold]
1 | CNC(=O)c1c(N(C)C=O)ncn1C/C=C(\C)CC/C=C(\C)CCC/C(C)=C\C(=O)CC(C)C [malonganenone B] | dose-dependent | –
2 | C/C(=C\CC/C(C)=C/Cn1cnc2c1c(=O)ncn2C)CC/C=C(\C)CC(=O)CC(C)C [malonganenone D] | – | 2
